Values joined by “and” are separate entries in the source; they are usually repeats but may differ in a detail not shown here. Identical values can stand only once.
Experiments:
Assay type in all cases: in vivo
Helicoverpa armigera = experiment: Diet incorporation method against Helicoverpa armigera (Example A); details: single compound, 96 h
Description: The diet incorporation method was used, in which semi-synthetic diet was incorporated into the test solutions consisting either of the single compounds or respective compound combinations, when the temperature was approximately 50° C. in the bio-assay containers, then stirred thoroughly for proper mixing and allowed to cool for 30 min. The solidified diet was cut into equal pieces, and then each piece was transferred into one cell of a bio-assay tray. A single starved third instar larva was released into each of these cells of the bio-assay trays and the tray was covered with a lid. The bio-assay trays were kept under laboratory conditions at a temperature of 25° C. and relative humidity of 70%. Observations on dead, moribund and live larvae were recorded 96 h after the release of the larvae. Percent mortality was calculated by combining dead and moribund larvae and comparing the result to the one of the untreated control. The results are shown for the compound of formula (I-III) in Table A.

Spodoptera litura = experiment: Diet incorporation method against Spodoptera litura (Example B); details: single compound, 96 h
Description: The diet incorporation method was used, in which semi-synthetic diet was incorporated into the test solution consisting either of the single compound or respective compound combinations, when the temperature was approximately 50° C. in the bioassay containers, then stirred thoroughly for proper mixing and allowed to cool for 30 min. The solidified diet was cut into equal pieces, and then each piece was transferred into one cell of the bio-assay trays. A single starved third instar larva was released into each of these cells of the bio-assay trays and the tray was covered with a lid. The bio-assay trays were kept under laboratory conditions at a temperature of 25° C. and relative humidity of 70%. Observations on dead, moribund and live larvae were recorded 96 h after the release. Percent mortality was calculated by combining dead and moribund larvae and comparing the result with the one of the untreated control. The results are shown for the compound of formula (I-III) in Table B.

Plutella xylostella = experiment: Leaf dip method (cabbage leaves) against Plutella xylostella (Example C); details: single compound, 72 h
Description: The leaf dip method was used, wherein the required quantity of the compound or respective compound combinations were weighed and dissolved in a test solution prepared in tubes. The tubes were put on a vortex at 2000 rpm for 90 min for proper mixing and then the test solutions were diluted with 0.01% Triton-X to the desired test concentration. Cabbage leaves were dipped into the solution for 10 seconds, shade dried for 20 min and then transferred to single cells of bioassay trays. A single second instar larva was released into each cell and the tray was covered with a lid. The bio-assay trays were kept under laboratory conditions at a temperature of 25° C. and relative humidity of 70%. Observations on dead, moribund and live larvae were recorded 72 h after the release. Percent mortality was calculated by combining dead and moribund larvae and comparing the result with the one of the untreated control. The results are shown for compound of formula (I-III) in Table C.

Phakopsora pachyrhizi = experiment: Preventive glasshouse test against Phakopsora pachyrhizi in soybean (Example H); details: single compound
Description: The single compounds or the respective compound combinations were dissolved in 2% dimethyl sulfoxide/acetone and then mixed with water containing an emulsifier to a calibrated spray volume of 50 ml. The test solutions were poured into spray bottles for further applications.
To test the preventive activity of compounds, healthy young Soybean plants, raised in the greenhouse, were sprayed with the active compound preparation at the stated application rates inside the spray cabinets using hollow cone nozzles. One day after treatment, the plants were inoculated with a suspension containing 2×10^5 Phakopsora pachyrhizi conidia. The inoculated plants were then kept in a greenhouse chamber at a temperature of 22-24° C. and 80-90% relative humidity for disease expression.
A visual assessment of the performance of the single compounds and respective compound combinations was carried out by rating the disease severity (0-100% scale) on treated plants 3, 7, 10 and 15 days after application. Efficacy (% control) of the compounds was calculated by comparing the disease rating in the treatment with the one of the untreated control. The compounds were also assessed for their plant compatibility by recording symptoms like necrosis, chlorosis and stunting. The results have been described for the compound of formula (I-III) in Table H.

Erysiphe cichoracearum = experiment: Preventive glasshouse test against Erysiphe cichoracearum in cucumber (Example K); details: single compound
Description: The single compounds or the respective compound combinations were dissolved in 2% dimethyl sulfoxide/acetone and then mixed with water containing emulsifier to a calibrated spray volume of 50 mL. The test solutions were poured into spray bottles for further applications.
To test the preventive activity of compounds, healthy young cucumber plants, raised in the greenhouse, were sprayed with the active compound preparation at the stated application rates inside the spray cabinets using hollow cone nozzles. One day after treatment, the plants were inoculated with a conidial suspension containing 2×10^5 Erysiphe cichoracearum inoculum. The inoculated plants were then kept in a greenhouse chamber at a temperature of 22-24° C. and 50-60% relative humidity for disease expression.
A visual assessment of the performance of the compounds and the respective compound combinations was carried out by rating the disease severity (0-100% scale) on treated plants 3, 7, 10 and 15 days after application. Efficacy (% control) of the single compounds or compound combinations was calculated by comparing the disease rating in the treatment with the one of the untreated control. The compounds were also assessed for their plant compatibility by recording symptoms like necrosis, chlorosis and stunting. The results have been described for the compound of formula (I-III) in Table K.

Alternaria solani = experiment: Preventive glasshouse test against Alternaria solani in tomato (Example G); details: single compound
Description: The single compounds or respective compound combinations were dissolved in 2% dimethyl sulfoxide/acetone and then mixed with water containing emulsifier to a calibrated spray volume of 50 mL. The test solutions were poured into spray bottles for further applications.
To test the preventive activity, healthy young tomato plants, raised in the greenhouse, were sprayed with the active compound preparation at the stated application rates inside the spray cabinets using hollow cone nozzles. One day after treatment, the plants were inoculated with a spore suspension containing 0.24×10^6 Alternaria solani inoculum and 2% Malt. The inoculated plants were then kept in a greenhouse chamber at a temperature of 22-24° C. and 90-95% relative humidity for disease expression.
A visual assessment of the performance of the single compounds or compound combinations was carried out by rating the disease severity (0-100% scale) on treated plants 3, 7, 10 and 15 days after application. Efficacy (% control) of the single compounds and mixtures was calculated by comparing the disease rating in the treatment with the one of the untreated control. The compounds were also assessed for their plant compatibility by recording symptoms like necrosis, chlorosis and stunting. The results have been described for the compound of formula (I-III) in Table G.

[1] = Helicoverpa armigera, 100 ppm, read-out: Observed Efficacy (%)
[2] = Spodoptera litura, 100 ppm, read-out: Observed Efficacy (%)
[3] = Spodoptera litura, read-out: Observed Efficacy (%)

## CN1COCN(Cc2cnc(Cl)s2)/C1=N\[N+](=O)[O-] [Thiamethoxam]
Helicoverpa armigera; [1]
  pest or weed control at 100 ppm: 25%
Spodoptera litura; Spodoptera litura, 50 ppm, read-out: Observed Efficacy (%)
  pest or weed control at 50 ppm: 0%
Spodoptera litura; [2]
  pest or weed control at 100 ppm: 0%
Plutella xylostella; 1 ppm
  Observed Efficacy (%): 12.5%

## CCS(=O)(=O)c1cccnc1-c1nc2cc(S(=O)(=O)C(F)(F)F)ccc2o1 [Oxazosulfyl, 2-[3-(ethanesulfonyl)pyridin-2-yl]-5-[trifluoro(methanesulfonyl)]-1,3-benzoxazole]
Helicoverpa armigera; [1]
  pest or weed control at 100 ppm: 12.5%
Plutella xylostella; 0.1 ppm
  Observed Efficacy (%): 0%

## COC(=O)N(C(=O)N1CO[C@@]2(C(=O)OC)Cc3cc(Cl)ccc3C2=N1)c1ccc(OC(F)(F)F)cc1 [Indoxacarb]
Helicoverpa armigera; 0.1 ppm
  Observed Efficacy (%): 0%
Spodoptera litura; 0.1 ppm
  Observed Efficacy (%): 0%

## CCN(C(=O)c1cnn(C(C)C(C)C)c1C)c1ccnnc1 (centres unmarked) [Dimpropyridaz]
Spodoptera litura; 100 ppm
  Observed Efficacy (%): 0%
Plutella xylostella; 0.1 ppm
  Observed Efficacy (%): 12.5%

## C=CCOC1=NS(=O)(=O)c2ccccc21 [Probenazole]
Helicoverpa armigera; [1]
  pest or weed control at 100 ppm: 0%
Spodoptera litura; [2]
  pest or weed control at 100 ppm: 12.5%
Spodoptera litura; [3]
  pest or weed control at 200 ppm: 0%
Phakopsora pachyrhizi; 2.0 ppm
  Observed Efficacy (%): 22%
Phakopsora pachyrhizi; 10.0 ppm
  Observed Efficacy (%): 28%
Erysiphe cichoracearum; Conc. 2 ppm
  Observed Efficacy (%): 15% and 16%
Erysiphe cichoracearum; Conc. 10 ppm
  Observed Efficacy (%): 22%

## CN(C(=O)c1ccccc1)c1cccc(C(=O)Nc2c(Br)cc(C(F)(C(F)(F)F)C(F)(F)F)cc2C(F)(F)F)c1F [Broflanilide]
Helicoverpa armigera; 0.05 ppm
  Observed Efficacy (%): 0%
Helicoverpa armigera; 0.1 ppm
  Observed Efficacy (%): 12.5%
Spodoptera litura; 0.05 ppm
  Observed Efficacy (%): 0%

## O=c1c(-c2cccc(C(F)(F)F)c2)c([O-])[n+](Cc2cncnc2)c2ccccn12 [Triflumezopyrim]
Helicoverpa armigera; 50 ppm
  Observed Efficacy (%): 12.5%
Helicoverpa armigera; 100 ppm
  Observed Efficacy (%): 0%
Spodoptera litura; 50 ppm
  Observed Efficacy (%): 25%

## Spinetoram
Helicoverpa armigera; 0.5 ppm
  Observed Efficacy (%): 25%
Plutella xylostella; 0.05 ppm
  Observed Efficacy (%): 62.5%

## COC(=O)NC(=S)Nc1ccccc1NC(=S)NC(=O)OC [Thiophanate-methyl]
Helicoverpa armigera; [1]
  pest or weed control at 100 ppm: 0%
Helicoverpa armigera; Helicoverpa armigera, 200 ppm, read-out: Observed Efficacy (%)
  pest or weed control at 200 ppm: 0%
Helicoverpa armigera; Helicoverpa armigera, 500 ppm, read-out: Observed Efficacy (%)
  pest or weed control at 500 ppm: 0%
Spodoptera litura; [2]
  pest or weed control at 100 ppm: 0%
Spodoptera litura; [3]
  pest or weed control at 200 ppm: 0%
  pest or weed control at 500 ppm: 0%
Alternaria solani; 10 ppm
  Observed Efficacy (%): 36%
Alternaria solani; 50 ppm
  Observed Efficacy (%): 36%

## CON=CNC(=O)c1ccc(C2=NOC(c3cc(Cl)cc(Cl)c3)(C(F)(F)F)C2)cc1C (centres unmarked) [Fluxametamid]
Plutella xylostella; 0.05 ppm
  Observed Efficacy (%): 0%
Plutella xylostella; 0.1 ppm
  Observed Efficacy (%): 0%

## N#Cc1nn(-c2c(Cl)cc(C(F)(F)F)cc2Cl)c(N)c1[S+]([O-])C(F)(F)F (centres unmarked) [Fipronil]
Plutella xylostella; 0.001 ppm
  Observed Efficacy (%): 0%

## N#Cc1ccc(CC(=NNC(=O)Nc2ccc(OC(F)(F)F)cc2)c2cccc(C(F)(F)F)c2)cc1 (mixture of isomers) [Metaflumizone]
Plutella xylostella; 0.01 ppm
  Observed Efficacy (%): 25%
Plutella xylostella; 0.1 ppm
  Observed Efficacy (%): 0%

## O=[N+]([O-])NC1=NCCN1Cc1ccc(Cl)nc1 [Imidacloprid]
Helicoverpa armigera; Helicoverpa armigera, 50 ppm, read-out: Observed Efficacy (%)
  pest or weed control at 50 ppm: 0%
Spodoptera litura; [2]
  pest or weed control at 100 ppm: 0%
Plutella xylostella; 0.1 ppm
  Observed Efficacy (%): 0%

## CCc1nc2cc(C)c(Oc3ccc(OC(F)(F)F)cc3)cc2c(OC(=O)OC)c1C [Flometoquin]
Plutella xylostella; 0.005 ppm
  Observed Efficacy (%): 12.5%

## CN/C(=N\[N+](=O)[O-])NCc1cnc(Cl)s1 [Clothianidin]
Helicoverpa armigera; Helicoverpa armigera, 10 ppm, read-out: Observed Efficacy (%)
  pest or weed control at 10 ppm: 12.5%
Helicoverpa armigera; Helicoverpa armigera, 20 ppm, read-out: Observed Efficacy (%)
  pest or weed control at 20 ppm: 25%
Spodoptera litura; Spodoptera litura, 20 ppm, read-out: Observed Efficacy (%)
  pest or weed control at 20 ppm: 0%

## N#Cc1c[nH]cc1-c1cccc2c1OC(F)(F)O2 [Fludioxonil]
Spodoptera litura; [2]
  pest or weed control at 100 ppm: 37.5%
Spodoptera litura; [3]
  pest or weed control at 200 ppm: 25%
Phakopsora pachyrhizi; 2.0 ppm
  Observed Efficacy (%): 19%
Phakopsora pachyrhizi; 10.0 ppm
  Observed Efficacy (%): 28%

## CCN(C(=O)CCSCCC(F)(F)F)c1cn(-c2cccnc2)nc1Cl [Tyclopyrazoflor]
Spodoptera litura; 100 ppm
  Observed Efficacy (%): 0%
Plutella xylostella; 0.1 ppm
  Observed Efficacy (%): 0%

## Spinosad
Helicoverpa armigera; 0.2 ppm
  Observed Efficacy (%): 12.5%
Spodoptera litura; 0.2 ppm
  Observed Efficacy (%): 0%

## Abamectin
Plutella xylostella; 0.001 ppm
  Observed Efficacy (%): 12.5%
Plutella xylostella; 0.005 ppm
  Observed Efficacy (%): 25%

## COCC(=O)N(c1c(C)cccc1C)C(C)C(=O)OC (centres unmarked) [Metalaxyl]
Spodoptera litura; [3]
  pest or weed control at 200 ppm: 0%
  pest or weed control at 500 ppm: 0%
Alternaria solani; 50 ppm
  Observed Efficacy (%): 22%
Alternaria solani; 100 ppm
  Observed Efficacy (%): 22%
Erysiphe cichoracearum; Conc. 100 ppm
  Observed Efficacy (%): 31%

## CC1=NNC(=O)N(/N=C/c2cccnc2)C1 [Pymetrozine]
Plutella xylostella; 0.01 ppm
  Observed Efficacy (%): 0%
Plutella xylostella; 0.05 ppm
  Observed Efficacy (%): 0%
Plutella xylostella; 1 ppm
  Observed Efficacy (%): 12.5%

## C[C@]1(COC(=O)C2CC2)[C@@H]2C[C@H](O)[C@@]3(C)Oc4cc(-c5cccnc5)oc(=O)c4[C@H](O)[C@@H]3[C@@]2(C)CC[C@@H]1OC(=O)C1CC1 [Afidopyropen]
Spodoptera litura; 50 ppm
  Observed Efficacy (%): 0%
Spodoptera litura; 100 ppm
  Observed Efficacy (%): 0%
Plutella xylostella; 0.1 ppm
  Observed Efficacy (%): 0%

## Cc1c(COC(=O)[C@@H]2[C@H](/C=C(\Cl)C(F)(F)F)C2(C)C)cccc1-c1ccccc1 (racemic) [Bifenthrin]
Helicoverpa armigera; Helicoverpa armigera, 1 ppm, read-out: Observed Efficacy (%)
  pest or weed control at 1 ppm: 0%
Plutella xylostella; 0.5 ppm
  Observed Efficacy (%): 12.5%
Plutella xylostella; 1 ppm
  Observed Efficacy (%): 25%

## Emamectin benzoate
Helicoverpa armigera; 0.1 ppm
  Observed Efficacy (%): 12.5%
Spodoptera litura; 0.05 ppm
  Observed Efficacy (%): 12.5%
Spodoptera litura; 0.1 ppm
  Observed Efficacy (%): 25%

## CC(COc1ccc(Oc2ccccc2)cc1)Oc1ccccn1 (centres unmarked) [Pyriproxyfen]
Plutella xylostella; 0.05 ppm
  Observed Efficacy (%): 12.5%
Plutella xylostella; 0.1 ppm
  Observed Efficacy (%): 25%
Plutella xylostella; 1 ppm
  Observed Efficacy (%): 12.5%

## CCN1OCC(NC(=O)c2ccc(C3=NOC(c4cc(Cl)c(F)c(Cl)c4)(C(F)(F)F)C3)cc2C)C1=O (centres unmarked) [Isocycloseram]
Spodoptera litura; 10 ppm
  Observed Efficacy (%): 12.5%
Plutella xylostella; 0.1 ppm
  Observed Efficacy (%): 87.5%

Reference: patent publication US20230276804A1, “A PESTICIDALLY ACTIVE MIXTURE COMPRISING PYRAZOLOPYRIDINE ANTHRANILAMIDE COMPOUND, OXIDES OR SALTS THEREOF” (priority 2020, published 2023)
